Measured values as given in patent US6355799B1, “Substituted benzene compounds, process for their preparation, and herbicidal and defoliant compositions containing them” (ISK Americas Incorporated, priority 1997, dated 2002).

How the values were obtained:
Format in all cases: in vivo
[1] = system: redroot pigweed (Amaranthus retroflexus, AMARE); test: Pre-emerge test, greenhouse herbicide activity screening; conditions: pre-emerge, rated 14 days after application, 0 = no damage, 100 = complete death
In short: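 Visual ratings on a 0-100 scale (0 no damage, 100 all plants dead) were taken at 14 days after treatment. Rates of 15-1000 g ai/ha in acetone, 187 l/ha, were sprayed onto soil one day after planting (pre-emerge) or onto 2-3 leaf plants with 0.25% v/v surfactant (post-emerge).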

[2] = system: barnyardgrass (Echinochloa crus-galli, ECHCG); test: as above; conditions: pre-emerge, rated 14 days after application, 0 = no damage, 100 = complete death
In short: (§1)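 Herbicidal damage is scored 0 (none) to 100 (complete plant death) two weeks after a simulated field spray. Rates span 15–1000 g ai/ha, delivered in acetone at 187 l/ha. For post-emergence treatments, plants have 2–3 leaves and the spray carries 0.25% v/v non-ionic surfactant.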

[3] = system: green foxtail (Setaria viridis, SETVI); test: as above; conditions: pre-emerge, rated 14 days after application, 0 = no damage, 100 = complete death
In short: as §1

[4] = system: ivyleaf morningglory (Ipomoea hederacea, IPOHE); test: as above; conditions: pre-emerge, rated 14 days after application, 0 = no damage, 100 = complete death
In short: as §1

[5] = system: johnsongrass (Sorghum halepense, SORHA); test: as above; conditions: pre-emerge, rated 14 days after application, 0 = no damage, 100 = complete death
In short: as §1

[6] = system: lambsquarters (Chenopodium album, CHEAL); test: as above; conditions: pre-emerge, rated 14 days after application, 0 = no damage, 100 = complete death
In short: as §1

[7] = system: large crabgrass (Digitaria sanguinalis, DIGSA); test: as above; conditions: pre-emerge, rated 14 days after application, 0 = no damage, 100 = complete death
In short: as §1

[8] = system: sicklepod (Cassia obtusifolia, CASOB); test: as above; conditions: pre-emerge, rated 14 days after application, 0 = no damage, 100 = complete death
In short: as §1

[9] = system: velvetleaf (Abutilon theophrasti, ABUTH); test: as above; conditions: pre-emerge, rated 14 days after application, 0 = no damage, 100 = complete death
In short: as §1

[10] = system: field corn (Zea mays L., var. Dekalb 535, CORN); test: Pre-emerge test, crop safety; conditions: pre-emerge, rated 14 days after application, 0 = no damage, 100 = complete death
In short: (§2)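 Compounds in acetone were track-sprayed at 187 l/ha, 15–1000 g ai/ha, onto sandy loam pots. Pre-emerge seeds were sown one day before spraying, with surface watering afterwards. Post-emerge plants were at the 2–3 leaf stage and sprayed with 0.25% v/v non-ionic surfactant. Injury was rated 0–100 at 14 days.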

[11] = system: upland rice (Oryza sp., var. Tebonnet, RICE); test: Pre-emerge test, crop safety; conditions: pre-emerge, rated 14 days after application, 0 = no damage, 100 = complete death
In short: as §2

[12] = system: barnyardgrass (Echinochloa crus-galli, ECHCG); test: Post-emerge test, greenhouse herbicide activity screening; conditions: phytotoxicity rating 0-100 (0 no damage, 100 complete death), 14 days after application
In short: (§3)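 Applied at 15–1000 g ai/ha from acetone in 187 l/ha spray volume. Post-emergence applications included 0.25% v/v non-ionic surfactant and reached plants sown 8–21 days before. Pre-emergence applications were incorporated by surface watering. Efficacy or crop damage was rated on a 0–100 scale after 14 days.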

[13] = system: green foxtail (Setaria viridis, SETVI); test: as above; conditions: phytotoxicity rating 0-100 (0 no damage, 100 complete death), 14 days after application
In short: as §3

[14] = system: ivyleaf morningglory (Ipomoea hederacea, IPOHE); test: as above; conditions: phytotoxicity rating 0-100 (0 no damage, 100 complete death), 14 days after application
In short: as §3

[15] = system: johnsongrass (Sorghum halepense, SORHA); test: as above; conditions: phytotoxicity rating 0-100 (0 no damage, 100 complete death), 14 days after application
In short: as §3

[16] = system: lambsquarters (Chenopodium album, CHEAL); test: as above; conditions: phytotoxicity rating 0-100 (0 no damage, 100 complete death), 14 days after application
In short: as §3

[17] = system: large crabgrass (Digitaria sanguinalis, DIGSA); test: as above; conditions: phytotoxicity rating 0-100 (0 no damage, 100 complete death), 14 days after application
In short: as §3

[18] = system: redroot pigweed (Amaranthus retroflexus, AMARE); test: as above; conditions: phytotoxicity rating 0-100 (0 no damage, 100 complete death), 14 days after application
In short: as §3

[19] = system: velvetleaf (Abutilon theophrasti, ABUTH); test: as above; conditions: phytotoxicity rating 0-100 (0 no damage, 100 complete death), 14 days after application
In short: as §3

[20] = system: field corn (Zea mays L., var. Dekalb 535, CORN); test: Post-emerge test, crop safety; conditions: phytotoxicity rating 0-100 (0 no damage, 100 complete death), 14 days after application
In short: as §1

[21] = system: upland rice (Oryza sp., var. Tebonnet, RICE); test: Post-emerge test, crop safety; conditions: phytotoxicity rating 0-100 (0 no damage, 100 complete death), 14 days after application
In short: as §1

SMILES: Cn1c(C(F)(F)F)cc(=O)n(-c2c(F)cc(Cl)c(OCC#N)c2NC(=O)C(F)(F)F)c1=O [2-11]
- Pre-emerge Herbicidal Activity AMARE (phytotoxicity rating, scale 0-100) ([1]; 63 g ai/ha): 30
- Pre-emerge Herbicidal Activity AMARE (phytotoxicity rating, scale 0-100) ([1]; 250 g ai/ha): 100
- Pre-emerge Herbicidal Activity ECHCG (phytotoxicity rating, scale 0-100) ([2]; 63 g ai/ha): 0
- Pre-emerge Herbicidal Activity ECHCG (phytotoxicity rating, scale 0-100) ([2]; 250 g ai/ha): 40
- Pre-emerge Herbicidal Activity SETVI (phytotoxicity rating, scale 0-100) ([3]; 63 g ai/ha): 0
- Pre-emerge Herbicidal Activity SETVI (phytotoxicity rating, scale 0-100) ([3]; 250 g ai/ha): 100
- Pre-emerge Herbicidal Activity IPOHE (phytotoxicity rating, scale 0-100) ([4]; 63 g ai/ha): 70
- Pre-emerge Herbicidal Activity IPOHE (phytotoxicity rating, scale 0-100) ([4]; 250 g ai/ha): 100
- Pre-emerge Herbicidal Activity SORHA (phytotoxicity rating, scale 0-100) ([5]; 63 g ai/ha): 0
- Pre-emerge Herbicidal Activity SORHA (phytotoxicity rating, scale 0-100) ([5]; 250 g ai/ha): 50
- Pre-emerge Herbicidal Activity CHEAL (phytotoxicity rating, scale 0-100) ([6]; 63 g ai/ha): 100
- Pre-emerge Herbicidal Activity CHEAL (phytotoxicity rating, scale 0-100) ([6]; 250 g ai/ha): 100
- Pre-emerge Herbicidal Activity DIGSA (phytotoxicity rating, scale 0-100) ([7]; 63 g ai/ha): 0
- Pre-emerge Herbicidal Activity DIGSA (phytotoxicity rating, scale 0-100) ([7]; 250 g ai/ha): 60
- Pre-emerge Herbicidal Activity CASOB (phytotoxicity rating, scale 0-100) ([8]; 63 g ai/ha): 0
- Pre-emerge Herbicidal Activity CASOB (phytotoxicity rating, scale 0-100) ([8]; 250 g ai/ha): 60
- Pre-emerge Herbicidal Activity ABUTH (phytotoxicity rating, scale 0-100) ([9]; 63 g ai/ha): 90
- Pre-emerge Herbicidal Activity ABUTH (phytotoxicity rating, scale 0-100) ([9]; 250 g ai/ha): 100
- Pre-emerge crop damage CORN (phytotoxicity rating, scale 0-100) ([10]; 63 g ai/ha): 0
- Pre-emerge crop damage CORN (phytotoxicity rating, scale 0-100) ([10]; 250 g ai/ha): 10
- Pre-emerge crop damage RICE (phytotoxicity rating, scale 0-100) ([11]; 63 g ai/ha): 10
- Pre-emerge crop damage RICE (phytotoxicity rating, scale 0-100) ([11]; 250 g ai/ha): 50
- Post-emerge Herbicidal Activity ECHCG ([12]; 63 g ai/ha): 0
- Post-emerge Herbicidal Activity ECHCG ([12]; 250 g ai/ha): 0
- Post-emerge Herbicidal Activity SETVI ([13]; 63 g ai/ha): 0
- Post-emerge Herbicidal Activity SETVI ([13]; 250 g ai/ha): 20
- Post-emerge Herbicidal Activity IPOHE ([14]; 63 g ai/ha): 50
- Post-emerge Herbicidal Activity IPOHE ([14]; 250 g ai/ha): 60
- Post-emerge Herbicidal Activity SORHA ([15]; 63 g ai/ha): 0
- Post-emerge Herbicidal Activity SORHA ([15]; 250 g ai/ha): 0
- Post-emerge Herbicidal Activity CHEAL ([16]; 63 g ai/ha): 40
- Post-emerge Herbicidal Activity CHEAL ([16]; 250 g ai/ha): 65
- Post-emerge Herbicidal Activity DIGSA ([17]; 63 g ai/ha): 0
- Post-emerge Herbicidal Activity DIGSA ([17]; 250 g ai/ha): 0
- Post-emerge Herbicidal Activity AMARE ([18]; 63 g ai/ha): 0
- Post-emerge Herbicidal Activity AMARE ([18]; 250 g ai/ha): 30
- Post-emerge Herbicidal Activity ABUTH ([19]; 63 g ai/ha): 80
- Post-emerge Herbicidal Activity ABUTH ([19]; 250 g ai/ha): 100
- Post-emerge Herbicidal Activity CORN (crop damage) ([20]; 63 g ai/ha): 5
- Post-emerge Herbicidal Activity CORN (crop damage) ([20]; 250 g ai/ha): 5
- Post-emerge Herbicidal Activity RICE (crop damage) ([21]; 63 g ai/ha): 0
- Post-emerge Herbicidal Activity RICE (crop damage) ([21]; 250 g ai/ha): 0

SMILES: C=Cc1ccc(C(=O)Nc2c(OC)c(Cl)cc(F)c2-n2c(=O)cc(C(F)(F)F)n(C)c2=O)cc1 [2-31]
- Pre-emerge Herbicidal Activity AMARE (phytotoxicity rating, scale 0-100) ([1]; 63 g ai/ha): 100
- Pre-emerge Herbicidal Activity AMARE (phytotoxicity rating, scale 0-100) ([1]; 250 g ai/ha): 100
- Pre-emerge Herbicidal Activity ECHCG (phytotoxicity rating, scale 0-100) ([2]; 63 g ai/ha): 40
- Pre-emerge Herbicidal Activity ECHCG (phytotoxicity rating, scale 0-100) ([2]; 250 g ai/ha): 100
- Pre-emerge Herbicidal Activity SETVI (phytotoxicity rating, scale 0-100) ([3]; 63 g ai/ha): 100
- Pre-emerge Herbicidal Activity SETVI (phytotoxicity rating, scale 0-100) ([3]; 250 g ai/ha): 100
- Pre-emerge Herbicidal Activity IPOHE (phytotoxicity rating, scale 0-100) ([4]; 63 g ai/ha): 100
- Pre-emerge Herbicidal Activity IPOHE (phytotoxicity rating, scale 0-100) ([4]; 250 g ai/ha): 100
- Pre-emerge Herbicidal Activity SORHA (phytotoxicity rating, scale 0-100) ([5]; 63 g ai/ha): 60
- Pre-emerge Herbicidal Activity SORHA (phytotoxicity rating, scale 0-100) ([5]; 250 g ai/ha): 85
- Pre-emerge Herbicidal Activity CHEAL (phytotoxicity rating, scale 0-100) ([6]; 63 g ai/ha): 100
- Pre-emerge Herbicidal Activity CHEAL (phytotoxicity rating, scale 0-100) ([6]; 250 g ai/ha): 100
- Pre-emerge Herbicidal Activity DIGSA (phytotoxicity rating, scale 0-100) ([7]; 63 g ai/ha): 90
- Pre-emerge Herbicidal Activity DIGSA (phytotoxicity rating, scale 0-100) ([7]; 250 g ai/ha): 100
- Pre-emerge Herbicidal Activity CASOB (phytotoxicity rating, scale 0-100) ([8]; 63 g ai/ha): 100
- Pre-emerge Herbicidal Activity CASOB (phytotoxicity rating, scale 0-100) ([8]; 250 g ai/ha): 100
- Pre-emerge Herbicidal Activity ABUTH (phytotoxicity rating, scale 0-100) ([9]; 63 g ai/ha): 100
- Pre-emerge Herbicidal Activity ABUTH (phytotoxicity rating, scale 0-100) ([9]; 250 g ai/ha): 100
- Pre-emerge crop damage CORN (phytotoxicity rating, scale 0-100) ([10]; 63 g ai/ha): 20
- Pre-emerge crop damage CORN (phytotoxicity rating, scale 0-100) ([10]; 250 g ai/ha): 40
- Pre-emerge crop damage RICE (phytotoxicity rating, scale 0-100) ([11]; 63 g ai/ha): 40
- Pre-emerge crop damage RICE (phytotoxicity rating, scale 0-100) ([11]; 250 g ai/ha): 90
- Post-emerge Herbicidal Activity ECHCG ([12]; 63 g ai/ha): 10
- Post-emerge Herbicidal Activity ECHCG ([12]; 250 g ai/ha): 40
- Post-emerge Herbicidal Activity SETVI ([13]; 63 g ai/ha): 10
- Post-emerge Herbicidal Activity SETVI ([13]; 250 g ai/ha): 20
- Post-emerge Herbicidal Activity IPOHE ([14]; 63 g ai/ha): 90
- Post-emerge Herbicidal Activity IPOHE ([14]; 250 g ai/ha): 100
- Post-emerge Herbicidal Activity SORHA ([15]; 63 g ai/ha): 10
- Post-emerge Herbicidal Activity SORHA ([15]; 250 g ai/ha): 30
- Post-emerge Herbicidal Activity CHEAL ([16]; 63 g ai/ha): 80
- Post-emerge Herbicidal Activity CHEAL ([16]; 250 g ai/ha): 95
- Post-emerge Herbicidal Activity DIGSA ([17]; 63 g ai/ha): 0
- Post-emerge Herbicidal Activity DIGSA ([17]; 250 g ai/ha): 20
- Post-emerge Herbicidal Activity AMARE ([18]; 63 g ai/ha): 100
- Post-emerge Herbicidal Activity AMARE ([18]; 250 g ai/ha): 90
- Post-emerge Herbicidal Activity ABUTH ([19]; 63 g ai/ha): 100
- Post-emerge Herbicidal Activity ABUTH ([19]; 250 g ai/ha): 100
- Post-emerge Herbicidal Activity CORN (crop damage) ([20]; 63 g ai/ha): 40
- Post-emerge Herbicidal Activity CORN (crop damage) ([20]; 250 g ai/ha): 60
- Post-emerge Herbicidal Activity RICE (crop damage) ([21]; 63 g ai/ha): 50
- Post-emerge Herbicidal Activity RICE (crop damage) ([21]; 250 g ai/ha): 70
